Assay: Examination of solubility of compounds in toluene
Details: in toluene at room temperature

| Structure (SMILES) | Solubility |
| --- | --- |
| CCCCCCCCCCCCNc1ccc2c3c(cc(=O)n2CCCC)-c2ccccc2C(=O)c13 [Compound (8)] | ≧10%^ |
| CCCCC(CC)CNc1ccc2c3c(cc(=O)n2CC(CC)CCCC)-c2ccccc2C(=O)c13 (stereo not drawn) [Compound (5)] | ≧10%^ |
| Cn1c(=O)cc2c3c(c(Nc4ccccc4)ccc31)C(=O)c1ccccc1-2 [(1)] | ≦1% |
| O=C1c2ccccc2-c2cc(=O)n(C3CCCCC3)c3ccc(NC4CCCCC4)c1c23 [(5)] | ≦0.1% ^ |
| CCCCn1c(=O)cc2c3c(c(NCCC4=CCCCC4)ccc31)C(=O)c1ccccc1-2 [Compound (9)] | ≧10%^ |
| Cc1ccc(Nc2ccc3c4c(cc(=O)n3C)-c3ccccc3C(=O)c24)cc1 [(2)] | ≦1% |
| Cc1ccc(Nc2ccc3c4c(cc(=O)n3-c3ccc(C)cc3)-c3ccccc3C(=O)c24)cc1 [(4)] | ≦1% |
| CCCCC(CC)CNc1ccc2c3c(cc(=O)n2C)-c2ccccc2C(=O)c13 (stereo not drawn) [Compound (1)] | 5% |
| Cc1cccc(Nc2ccc3c4c(cc(=O)n3C)-c3ccccc3C(=O)c24)c1 [(3)] | ≦1% |
